Results from patent US12194051B2, “5-azaindazole derivatives as adenosine receptor antagonists” (MERCK PATENT GMBH, priority 2018, dated 2025).

Key:
[1] = target: T1, human A2B receptors (Homo sapiens, UniProt P29275); test: Inhibition of human A2B receptor in recombinant HEK293 cells, cAMP quantification (HTRF); assay type: cell-based; conditions: read-out: A2B (Category)
T1 construct: expressed in transfected cells; host or cells: HEK293
T1 sequence (P29275 1-332): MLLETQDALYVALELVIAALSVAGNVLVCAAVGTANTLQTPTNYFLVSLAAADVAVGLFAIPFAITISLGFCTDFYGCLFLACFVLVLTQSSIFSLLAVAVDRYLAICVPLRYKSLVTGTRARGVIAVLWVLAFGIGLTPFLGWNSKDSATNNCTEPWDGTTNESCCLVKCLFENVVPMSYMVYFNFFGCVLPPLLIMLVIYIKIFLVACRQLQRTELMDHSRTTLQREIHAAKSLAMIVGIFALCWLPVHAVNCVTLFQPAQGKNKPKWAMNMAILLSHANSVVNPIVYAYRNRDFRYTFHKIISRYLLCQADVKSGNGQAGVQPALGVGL
Method: (§1) The functional activities of human A2A and A2B receptors were determined by quantification of cAMP, being the second messenger for adenosine receptors.
(§2) After a 15 min incubation, HTRF reagents (cAMP dynamic 2, Cis Bio) were added and the cellular cAMP levels were determined using the ENVISION (Perkin Elmer) plate reader.

[2] = target: T2, human A2A receptors (Homo sapiens, UniProt P29274); test: Inhibition of human A2A receptor in recombinant HEK293 cells, cAMP quantification (HTRF); assay type: cell-based; conditions: read-out: A2A (Category)
T2 construct: expressed in transfected cells; host or cells: HEK293
T2 sequence (P29274 whole entry): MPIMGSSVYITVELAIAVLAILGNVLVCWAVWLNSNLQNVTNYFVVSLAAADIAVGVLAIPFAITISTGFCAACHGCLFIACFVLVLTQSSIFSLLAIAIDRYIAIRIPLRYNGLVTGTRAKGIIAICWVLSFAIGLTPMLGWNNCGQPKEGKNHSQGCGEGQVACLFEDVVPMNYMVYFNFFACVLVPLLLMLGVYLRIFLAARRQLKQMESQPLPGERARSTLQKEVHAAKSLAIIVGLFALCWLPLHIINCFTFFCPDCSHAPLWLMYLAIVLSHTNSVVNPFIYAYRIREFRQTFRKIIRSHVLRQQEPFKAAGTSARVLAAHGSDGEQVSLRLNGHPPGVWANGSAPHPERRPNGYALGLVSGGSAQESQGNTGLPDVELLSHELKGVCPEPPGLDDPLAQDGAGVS
Method: as §1, §2

Row | SMILES | IC50 [1] [nM] | IC50 [2] [nM]
1 | CS(=O)(=O)Cn1nc(Nc2cc(Cl)ccn2)c2cnc(C(=O)N3CCCOCC3)cc21 [Compound 79, [3-(4-Chloro-pyridin-2-ylamino)-1-methanesulfonylmethyl-1H-pyrazolo[4,3-c]pyridin-6-yl]-[1,4]oxazepan-4-yl-methanone] | < 100 | < 100
2 | O=C(c1cc2c(cn1)c(Nc1ccc(F)c(F)n1)nn2CC(F)(F)F)N1CCCOCC1 [Compound 80, [3-[(5,6-difluoro-2-pyridyl)amino]-1-(2,2,2-trifluoroethyl)pyrazolo[4,3-c]pyridin-6-yl]-(1,4-oxazepan-4-yl)methanone] | < 100 | < 100
3 | COc1cc(Nc2nn(CC(F)(F)F)c3cc(C(=O)N4CCCOCC4)ncc23)ncc1F [Compound 81, [3-[(5-fluoro-4-methoxy-2-pyridyl)amino]-1-(2,2,2-trifluoroethyl)pyrazolo[4,3-c]pyridin-6-yl]-(1,4-oxazepan-4-yl)methanone] | < 1000 | < 100
4 | COc1ccc(Nc2nn(CC(F)(F)F)c3cc(C(=O)N4CCCOCC4)ncc23)nc1 [Compound 83, [3-(5-Methoxy-pyridin-2-ylamino)-1-(2,2,2-trifluoro-ethyl)-1H-pyrazolo[4,3-c]pyridin-6-yl]-[1,4]oxazepan-4-yl-methanone] | < 100 | < 100
5 | O=C(c1cc2c(cn1)c(Nc1cncs1)nn2CC(F)(F)F)N1CCCOCC1 [Compound 84, [1,4]Oxazepan-4-yl-[3-(thiazol-5-ylamino)-1-(2,2,2-trifluoro-ethyl)-1H-pyrazolo[4,3-c]pyridin-6-yl]methanone] | < 100 | < 100
6 | O=C(c1cc2c(cn1)c(Nc1nccs1)nn2CC(F)(F)F)N1CCCOCC1 [Compound 85, [1,4]Oxazepan-4-yl-[3-(thiazol-2-ylamino)-1-(2,2,2-trifluoro-ethyl)-1H-pyrazolo[4,3-c]pyridin-6-yl]methanone] | < 100 | < 100
7 | O=C(c1cc2c(cn1)c(Nc1cccc(=O)[nH]1)nn2CC(F)(F)F)N1CCCOCC1 [Compound 86, 6-[6-([1,4]Oxazepane-4-carbonyl)-1-(2,2,2-trifluoro-ethyl)-1H-pyrazolo[4,3-c]pyridin-3-ylamino]-1H-pyridin-2-one] | < 1000 | < 100
8 | [2H]C1([2H])COCCN(C(=O)c2cc3c(cn2)c(Nc2ccc(F)cn2)nn3CC(F)(F)F)C1 [Compound 91, (6,6-dideuterio-1,4-oxazepan-4-yl)-[3-[(5-fluoro-2-pyridyl)amino]-1-(2,2,2-trifluoroethyl)pyrazolo[4,3-c]pyridin-6-yl]methanone] | < 100 | < 100
9 | O=C(c1cc2c(cn1)c(Nc1ccc(F)cn1)nn2CC(F)(F)F)N1CCOC[C@@H](F)C1 [Compound 93, [(6S)-6-fluoro-1,4-oxazepan-4-yl]-[3-[(5-fluoro-2-pyridyl)amino]-1-(2,2,2-trifluoroethyl)pyrazolo[4,3-c]pyridin-6-yl]methanone] | < 100 | < 100
10 | O=C(c1cc2c(cn1)c(Nc1ccc(F)cn1)nn2CC(F)(F)F)N1CCC(O)CC1 [Compound 94, [3-[(5-fluoro-2-pyridyl)amino]-1-(2,2,2-trifluoroethyl)pyrazolo[4,3-c]pyridin-6-yl]-(4-hydroxypiperidin-1-yl)methanone] | < 100 | < 100
11 | CC1(O)CCN(C(=O)c2cc3c(cn2)c(Nc2ccc(F)cn2)nn3CC(F)(F)F)CC1 [Compound 95, [3-(5-Fluoro-pyridin-2-ylamino)-1-(2,2,2-trifluoro-ethyl)-1H-pyrazolo[4,3-c]pyridin-6-yl]-(4-hydroxy-4-methyl-piperidin-1-yl)-methanone] | < 1000 | < 100
12 | O=C(c1cc2c(cn1)c(Nc1ccc(F)cn1)nn2CC(F)(F)F)N1CCC(F)CC1 [Compound 96, (4-Fluoro-piperidin-1-yl)-[3-(5-fluoro-pyridin-2-ylamino)-1-(2,2,2-trifluoro-ethyl)-1H-pyrazolo[4,3-c]pyridin-6-yl]-methanone] | < 1000 | < 100
13 | O=C(c1cc2c(cn1)c(Nc1ccc(F)cn1)nn2CC(F)(F)F)N1CCC[C@@H](O)C1 [Compound 97, [(3R)-3-hydroxy-piperidin-1-yl]-[3-(5-Fluoro-pyridin-2-ylamino)-1-(2,2,2-trifluoro-ethyl)-1H-pyrazolo[4,3-c]pyridin-6-yl]-methanone] | < 1000 | < 100
14 | O=C(c1cc2c(cn1)c(Nc1ccc(F)cn1)nn2CC(F)(F)F)N1CCC[C@H](O)C1 [Compound 98, [(3S)-3-hydroxy-piperidin-1-yl]-[3-(5-Fluoro-pyridin-2-ylamino)-1-(2,2,2-trifluoro-ethyl)-1H-pyrazolo[4,3-c]pyridin-6-yl]methanone] | < 1000 | < 100
15 | O=C(c1cc2c(cn1)c(Nc1ccc(F)cn1)nn2CC(F)(F)F)N1CCC[C@@H](F)C1 [Compound 99, [(3R)-3-fluoro-piperidin-1-yl]-[3-(5-Fluoro-pyridin-2-ylamino)-1-(2,2,2-trifluoro-ethyl)-1H-pyrazolo[4,3-c]pyridin-6-yl]methanone] | < 1000 | < 100
16 | O=C(c1cc2c(cn1)c(Nc1ccc(F)cn1)nn2CC(F)(F)F)N1CCC[C@H](F)C1 [Compound 100, [(3S)-3-fluoro-piperidin-1-yl]-[3-(5-Fluoro-pyridin-2-ylamino)-1-(2,2,2-trifluoro-ethyl)-1H-pyrazolo[4,3-c]pyridin-6-yl]methanone] | < 1000 | < 100
17 | O=C(c1cc2c(cn1)c(Nc1ccc(F)cn1)nn2CC(F)(F)F)N1CCC[C@@H](CO)C1 [Compound 101, [3-[(5-fluoro-2-pyridyl)amino]-1-(2,2,2-trifluoroethyl)pyrazolo[4,3-c]pyridin-6-yl]-[(3R)-3-(hydroxymethyl)-1-piperidyl]methanone] | < 100 | < 100
18 | O=C(c1cc2c(cn1)c(Nc1ccc(F)cn1)nn2CC(F)(F)F)N1CCC[C@H](CO)C1 [Compound 102, [3-[(5-fluoro-2-pyridyl)amino]-1-(2,2,2-trifluoroethyl)pyrazolo[4,3-c]pyridin-6-yl]-[(3S)-3-(hydroxymethyl)-1-piperidyl]methanone] | < 100 | < 100
19 | O=C(c1cc2c(cn1)c(Nc1ccc(F)cn1)nn2CC(F)(F)F)N1[C@@H]2CC[C@H]1C[C@@H](O)C2 [Compound 107, [3-[(5-fluoro-2-pyridyl)amino]-1-(2,2,2-trifluoroethyl)pyrazolo[4,3-c]pyridin-6-yl]-(3-endo-hydroxy-8-azabicyclo[3.2.1]octan-8-yl)methanone] | < 100 | < 100
20 | O=C(c1cc2c(cn1)c(Nc1cc(F)ccn1)nn2CC(F)(F)F)N1CCOC[C@@H](F)C1 [Compound 110, [(6S)-6-fluoro-1,4-oxazepan-4-yl]-[3-(4-fluoro-pyridin-2-ylamino)-1-(2,2,2-trifluoro-ethyl)-1H-pyrazolo[4,3-c]pyridin-6-yl]-methanone] | < 100 | < 100
21 | O=C(c1cc2c(cn1)c(Nc1cc(F)ccn1)nn2CC(F)(F)F)N1CCC(O)CC1 [Compound 111, [3-[(4-fluoro-2-pyridyl)amino]-1-(2,2,2-trifluoroethyl)pyrazolo[4,3-c]pyridin-6-yl]-(4-hydroxypiperidin-1-yl)methanone] | < 100 | < 100
22 | CC1(O)CCN(C(=O)c2cc3c(cn2)c(Nc2cc(F)ccn2)nn3CC(F)(F)F)CC1 [Compound 112, [3-(4-Fluoro-pyridin-2-ylamino)-1-(2,2,2-trifluoro-ethyl)-1H-pyrazolo[4,3-c]pyridin-6-yl]-(4-hydroxy-4-methyl-piperidin-1-yl)-methanone] | < 100 | < 100
23 | CCC1(O)CCN(C(=O)c2cc3c(cn2)c(Nc2cc(F)ccn2)nn3CC(F)(F)F)CC1 [Compound 113, [3-(4-Fluoro-pyridin-2-ylamino)-1-(2,2,2-trifluoro-ethyl)-1H-pyrazolo[4,3-c]pyridin-6-yl]-(4-ethyl-4-hydroxypiperidin-1-yl)-methanone] | < 100 | < 100
24 | CC(C)C1(O)CCN(C(=O)c2cc3c(cn2)c(Nc2cc(F)ccn2)nn3CC(F)(F)F)CC1 [Compound 114, [3-(4-Fluoro-pyridin-2-ylamino)-1-(2,2,2-trifluoro-ethyl)-1H-pyrazolo[4,3-c]pyridin-6-yl]-(4-isopropyl-4-hydroxypiperidin-1-yl)-methanone] | < 100 | < 100
25 | O=C(c1cc2c(cn1)c(Nc1cc(F)ccn1)nn2CC(F)(F)F)N1CCC(O)(C2CC2)CC1 [Compound 115, [3-(4-Fluoro-pyridin-2-ylamino)-1-(2,2,2-trifluoro-ethyl)-1H-pyrazolo[4,3-c]pyridin-6-yl]-(4-cyclopropyl-4-hydroxypiperidin-1-yl)-methanone] | < 100 | < 100
26 | O=C(c1cc2c(cn1)c(Nc1cc(F)ccn1)nn2CC(F)(F)F)N1CCC(F)CC1 [Compound 116, (4-Fluoro-piperidin-1-yl)-[3-(4-fluoro-pyridin-2-ylamino)-1-(2,2,2-trifluoro-ethyl)-1H-pyrazolo[4,3-c]pyridin-6-yl]-methanone] | < 100 | < 100
27 | O=C(c1cc2c(cn1)c(Nc1cc(F)ccn1)nn2CC(F)(F)F)N1CCC[C@H](O)C1 [Compound 117, [(3S)-3-hydroxy-piperidin-1-yl]-[3-(4-fluoro-pyridin-2-ylamino)-1-(2,2,2-trifluoro-ethyl)-1H-pyrazolo[4,3-c]pyridin-6-yl]methanone] | < 100 | < 100
